A word on the EC50: it is the concentration at which the effect is half-maximal.

The results in this text go back to US12643884B2, “1-(2-(4-cyclopropyl-1H-1,2,3-triazol-1-yl)acetyl)-4-hydroxypyrrolidine-2-carboxa|mide derivatives as VHL inhibitors for the treatment of anemia” (Genentech, Inc., priority 2020, dated 2026).

One series deals with T1, VHL (Homo sapiens, UniProt P40337).
T1 construct: expressed in transfected cells
As to the kind of experiment: VHL nanoBRET (+Digitonin). Type of series: cell-based.

The target in series [1] is T2, NanoLuc VHL fusion protein stably expressed in HEK 293 cells (Homo sapiens, UniProt P40337).
T2 construct: expressed in transfected cells
T2 sequence (P40337 whole entry, the tested form may be a part): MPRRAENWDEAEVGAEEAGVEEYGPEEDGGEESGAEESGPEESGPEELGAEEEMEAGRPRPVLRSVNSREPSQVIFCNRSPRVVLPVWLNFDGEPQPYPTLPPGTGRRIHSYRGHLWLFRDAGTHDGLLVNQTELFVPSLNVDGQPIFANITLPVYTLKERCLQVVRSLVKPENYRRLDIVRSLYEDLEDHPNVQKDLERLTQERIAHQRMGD
T2 sequence (Q15370 whole entry partner, the tested form may be a part): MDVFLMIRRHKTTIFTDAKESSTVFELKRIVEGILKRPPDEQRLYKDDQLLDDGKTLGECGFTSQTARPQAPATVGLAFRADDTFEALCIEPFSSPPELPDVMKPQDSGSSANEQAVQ
T2 sequence (Q15369 whole entry partner, the tested form may be a part): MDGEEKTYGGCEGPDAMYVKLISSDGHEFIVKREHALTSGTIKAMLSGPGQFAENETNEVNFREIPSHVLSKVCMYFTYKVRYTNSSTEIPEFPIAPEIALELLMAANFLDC
Briefly: VHL HEK-293 BRET Assay (VHL NanoBRET Target Engagement Assay). Type of series: cell-based. The note with it: for IC50: HEK293 cells, nanoBRET, geometric mean where more than one measurement, read-out: VHL binding in cells (HEK293 nanoBRET); for Ratio cell permeability shift: ratio of nanoBRET in cells to nanoBRET +Digitonin. Here is the method:
The VHL NanoBRET™ Target Engagement Assay analyzes the apparent affinity of test compounds for VHL in cells by competitive displacement of a VHL NanoBRET™ tracer reversibly bound to a NanoLuc® VHL fusion protein stably expressed in the cells.
Test compounds were transferred to the assay plate (384 Well White Non-Binding Corning Assay Plates (Corning-3574)) using an Echo 555 Liquid Handler (Labcyte) in 2.5 nL increments and, as appropriate, intermediate stock concentrations of compounds, in order to prepare a titration series. 50 nL of control compound (10 mM; parental unlabeled VHL antagonist; see structure below) and 50 nL of DMSO (negative control) were dispensed into the appropriate control wells. DMSO was backfilled to a final volume of 50 nL as required. 50 nl per well of 1 mM VHL NanoBRET™ Tracer in DMSO (NanoBRET™ Tracer-PEG2-590 (see structure below)) was transferred into each well using an Echo 555 (ultimately yielding a final concentration of 1 uM). HEK 293 RT VHL-NanoLuc® stable cells were cultured in DMEM High Glucose with Pyruvate, 10% fetal bovine serum, 2 mg/mL of Geneticin Selective Antibiotic (50 mg/ml) and 2 mM HEPES (1 M). Cells were seeded in Opti-MEM (Life Technologies-11058-021), 1.7×10^5 cells/mL, 40 μl per well into the assay plate, centrifuged at 500 rpm for 30 seconds and incubated for 2 hours. Max Signal control wells consisted of DMSO only treated wells. Minimum Signal control wells contained of 10 uM parental unlabeled VHL antagonist (control compound—see structure below). 3× Complete Substrate plus Inhibitor Solution was prepared in Opti-MEM (consists of a 1:166 dilution of NanoBRET™ Nano-Glo® Substrate plus a 1:500 dilution of Extracellular NanoLuc® Inhibitor in Opti-MEM), and 20 ul was dispensed into each well of the 384-well plate and centrifuged at 1000 rpm for 1 minute, then incubated for 2 minutes at room temperature. Background Signal control wells were prepared without tracer for background correction steps.
Plates were read using a PerkinElmer Envision Reader (model 2104-0020) equipped with Luminescence option (Mirror: BRET2 Enh (PE Barcode 659), Emission Filter: Omega 610LP (Barcode 504), 2nd Emission Filter: Umbelliferone 460 (Barcode 207), Measurement height: 6.5 mm, Measurement time: 1 s). The raw BRET ratio values were calculated by dividing the acceptor emission value (610 nm) by the donor emission value (460 nm) for each sample. To correct for background, the BRET ratio in the absence of tracer (average of no-tracer control samples) was subtracted from the BRET ratio of each sample. Raw BRET units were converted to milliBRET units (mBU) by multiplying each raw BRET value by 1,000. The normalized NanoBRET™ signal was calculated relative to the Max Signal control wells (DMSO treated control wells) and the Minimum Signal control wells. Percentage inhibition was calculated relative to the Minimum Signal control and Maximum Signal control wells. IC50 values were derived by four parameter curve fitting using the Robust method.
For orientation: BRET reads energy transfer from a luciferase to a nearby fluorophore.

T1 sequence (P40337 whole entry): as the sequence (P40337 whole entry, the tested form may be a part) above
T1 sequence (Q15370 whole entry partner): as the sequence (Q15370 whole entry partner, the tested form may be a part) above
T1 sequence (Q15369 whole entry partner): as the sequence (Q15369 whole entry partner, the tested form may be a part) above

On VHL, `CNC(=O)[C@@H]1C[C@@H](O)CN1C(=O)[C@H](C(C)C)n1cc(-c2ccc[nH]2)nn1` (mixture of isomers) [Final product from Example S29, (2S, 4R)-4-hydroxy-N-methyl-1-[rac-(2S)-3-methyl-2-[4-(1H-pyrrol-2-yl)triazol-1-yl]butanoyl]pyrrolidine-2-carboxamide] showed an EC50 of 2110 nM. Also, in series [1], the IC50 came to 2650 nM and the “Ratio cell permeability shift” value turned out to be 1.26.

On VHL, `CNC(=O)[C@@H]1C[C@@H](O)CN1C(=O)[C@H](C(C)C)n1cc(-c2nccs2)nn1` (mixture of isomers) [Final product from Example S31, (2S, 4R)-4-hydroxy-N-methyl-1-[rac-(2S)-3-methyl-2-(4-thiazol-2-yltriazol-1-yl)butanoyl]pyrrolidine-2-carboxamide] yielded a half-maximal effective concentration (EC50) of 1200 nM. For the same compound, in series [1], the IC50 was 1100 nM and the “Ratio cell permeability shift” value stood at 0.92.

`CNC(=O)[C@@H]1C[C@@H](O)CN1C(=O)[C@H](C1CCOCC1)n1cc(C2CC2)nn1` (single isomer, unassigned) [Final product from Example S6] gave a 50% effective concentration (EC50) on VHL of 2680 nM. Besides, in series [1], the IC50 worked out at 8040 nM and the “Ratio cell permeability shift” value stood at 3.00.

On to `CNC(=O)[C@@H]1C[C@@H](O)CN1C(=O)[C@H](C1CCCCC1)n1cc(-c2ccco2)nn1` (single isomer, unassigned) [Final product from Example S23], for which it took 470 nM to reach a half-maximal effect on VHL (EC50). Further, in series [1], the IC50 worked out at 320 nM and the “Ratio cell permeability shift” value is recorded as 0.68.

`CNC(=O)[C@@H]1C[C@@H](O)CN1C(=O)[C@H](C(C)C)n1nnc2ccccc21` (single isomer, unassigned) [Final product from Example S24]: the 50% effective concentration (EC50) on VHL came to 2840 nM. Also, in series [1], the IC50 amounted to 2150 nM and the “Ratio cell permeability shift” value amounted to 0.76.

With `CNC(=O)[C@@H]1C[C@@H](O)CN1C(=O)[C@H](C(C)C)n1nnc2c(OC)cccc21` (single isomer, unassigned) [Final product from Example S25], the half-maximal effective concentration (EC50) on VHL worked out at 3800 nM. In series [1], the IC50 is 2600 nM and the “Ratio cell permeability shift” value is reported as 0.68.

As for `CNC(=O)[C@@H]1C[C@@H](O)CN1C(=O)[C@H](C(C)C)n1nnc2cc(F)c(F)cc21` (single isomer, unassigned) [Final product from Example S26], at VHL, the EC50 was 1980 nM. Moreover, in series [1], the IC50 was 1020 nM and the “Ratio cell permeability shift” value stood at 0.51.

In turn, `CNC(=O)[C@@H]1C[C@@H](O)CN1C(=O)[C@H](C(C)C)n1cc(-c2ncco2)nn1` (single isomer, unassigned) [Final product from Example S30] had an EC50 on VHL of 970 nM. For the same compound, in series [1], the IC50 is 920 nM and the “Ratio cell permeability shift” value was determined as 0.95.

`CNC(=O)[C@@H]1C[C@@H](O)CN1C(=O)[C@H](C(C)C)n1cc(-c2cncs2)nn1` (single isomer, unassigned) [Final product from Example S33]: the concentration for a half-maximal effect (EC50) at VHL was found to be 1120 nM. In series [1], the IC50 is 900 nM and the “Ratio cell permeability shift” value came to 0.80.

Turning to `CNC(=O)[C@@H]1C[C@@H](O)CN1C(=O)[C@H](C(C)C)n1cc(C2CC2)nn1` (single isomer, unassigned) [Isomer A from Example S11], the EC50 at VHL was 3100 nM. Also, in series [1], the IC50 turned out to be 3000 nM and the “Ratio cell permeability shift” value stood at 0.97.

On to `CNC(=O)[C@@H]1C[C@@H](O)CN1C(=O)[C@@H](C(C)C)n1cc(C2CC2)nn1` (single isomer, unassigned) [Isomer B from Example S11], for which the concentration for a half-maximal effect (EC50) on VHL is greater than 100000 nM. Further, in series [1], the IC50 was greater than 100000 nM.
